Measurements taken from patent US20140148443A1, “Novel Imidazolines as dual inhibitors of MDM2 and MDMX” (priority 2012, published 2014).

Legend:
GST-tagged MDMX = biological target: T1, GST-tagged MDMX (Homo sapiens, UniProt O15151); assay: HTRF binding assay of GST-tagged MDMX to p53 peptide
T1 sequence (O15151 1-490): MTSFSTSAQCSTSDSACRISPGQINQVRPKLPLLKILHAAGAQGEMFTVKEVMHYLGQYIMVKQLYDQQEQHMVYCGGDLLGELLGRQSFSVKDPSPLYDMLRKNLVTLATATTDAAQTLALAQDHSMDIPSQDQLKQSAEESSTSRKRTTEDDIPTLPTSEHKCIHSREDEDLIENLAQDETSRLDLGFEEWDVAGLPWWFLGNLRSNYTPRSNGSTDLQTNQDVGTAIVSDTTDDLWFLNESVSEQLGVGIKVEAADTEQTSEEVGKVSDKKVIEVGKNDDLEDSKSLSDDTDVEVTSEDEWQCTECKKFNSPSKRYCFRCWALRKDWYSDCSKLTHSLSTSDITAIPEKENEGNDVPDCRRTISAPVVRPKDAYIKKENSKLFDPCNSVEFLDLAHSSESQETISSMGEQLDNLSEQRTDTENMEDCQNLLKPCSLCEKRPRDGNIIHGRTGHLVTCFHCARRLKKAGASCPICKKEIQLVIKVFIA

[1] = biological target: recombinant GST-tagged MDM2 (Homo sapiens, UniProt Q00987); assay: HTRF assay of interaction between p53 peptide and GST-tagged MDM2; settings: inhibition of GST-MDM2 (160 ng/ml) binding to biotinylated p53-peptide
recombinant GST-tagged MDM2, sequence (Q00987 whole entry): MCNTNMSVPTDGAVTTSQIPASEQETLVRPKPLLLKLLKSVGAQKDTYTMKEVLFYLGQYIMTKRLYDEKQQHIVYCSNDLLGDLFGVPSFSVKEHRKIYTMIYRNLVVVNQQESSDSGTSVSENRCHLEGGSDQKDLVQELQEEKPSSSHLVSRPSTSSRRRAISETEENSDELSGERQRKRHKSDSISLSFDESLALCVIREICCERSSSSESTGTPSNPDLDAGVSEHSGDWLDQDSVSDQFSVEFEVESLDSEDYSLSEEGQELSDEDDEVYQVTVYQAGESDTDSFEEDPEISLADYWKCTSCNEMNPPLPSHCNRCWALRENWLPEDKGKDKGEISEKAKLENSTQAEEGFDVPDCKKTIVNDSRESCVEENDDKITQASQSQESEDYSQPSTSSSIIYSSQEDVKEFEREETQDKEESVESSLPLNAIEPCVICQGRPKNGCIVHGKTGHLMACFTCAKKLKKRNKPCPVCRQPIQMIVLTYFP
Procedure: The ability of a test compound to inhibit the interaction between p53 and MDM2 protein was measured by an HTRF (homogeneous time-resolved fluorescence) assay in which recombinant GST-tagged MDM2 binds to a peptide that resembles the MDM2-interacting region of p53 Aca-[…]-OH hereinafter p53-peptide). Binding of GST-MDM2 protein and p53-peptide (biotinylated on its N-terminal end) is registered by the FRET (fluorescence resonance energy transfer) between Europium (Eu)-labeled anti-GST antibody and streptavidin-conjugated Allophycocyanin (APC).
The test was performed in black flat-bottom 384-well plates (Costar) in a total volume of 40 uL containing: 90 nM biotinylated peptide, 160 ng/ml GST-MDM2, 20 nM streptavidin-APC (PerkinElmerWallac), 2 nM Eu-labeled anti-GST-antibody (PerkinElmerWallac), 0.02% bovine serum albumin (BSA), 1 mM dithiothreitol (DTT) and 20 mM […] (TBS) buffer as follows: add 10 uL of GST-MDM2 (640 ng/ml working solution) in reaction buffer to each well. Add 10 uL diluted compounds (1:5 dilution in reaction buffer) to each well, mix by shaking. Add 20 uL biotinylated p53 peptide (180 nM working solution) in reaction buffer to each well and mix on shaker. Incubate at 37° C. for 1 h. Add […] streptavidin-APC and Eu-anti-GST antibody mixture (6 nM Eu-anti-GST and 60 nM streptavidin-APC working solution) in TBS buffer with 0.02% BSA, shake at room temperature for 30 minutes and read using a TRF-capable plate reader at 665 and 615 nm (Victor 5, Perkin ElmerWallac). If not specified, the reagents were purchased from Sigma Chemical Co.

| Compound | IC50 (GST-tagged MDMX) [nM] | IC50 [1] [nM] |
| --- | --- | --- |
| CCOc1cc(Cl)c(S(=O)(=O)NC(C)(C)C)cc1C1=N[C@@](C)(c2ccc(Cl)cc2)[C@@](C)(c2ccc(Cl)cc2)N1C(=O)N1CCN(CC(=O)NCC2CCCO2)CC1 (mixture of isomers) [Example 48, 2-{4-[(4S,5R)-2-(5-tert-Butylsulfamoyl-4-chloro-2-ethoxy-phenyl)-4,5-bis-(4-chloro-phenyl)-4,5-dimethyl-4,5-dihydro-imidazole-1-carbonyl]-piperazin-1-yl}-N-(tetrahydro-furan-2-ylmethyl)-acetamide] | 1330 | 11.7 |
| CCOc1cc(Cl)c(S(C)(=O)=O)cc1C1=N[C@@](C)(c2ccc(Cl)cc2)[C@@](C)(c2ccc(Cl)cc2)N1C(=O)N1CCC(CC(N)=O)CC1 (racemic) [Example 5, 2-{1-[(4S,5R)-2-(4-Chloro-2-ethoxy-5-methanesulfonyl-phenyl)-4,5-bis-(4-chloro-phenyl)-4,5-dimethyl-4,5-dihydro-imidazole-1-carbonyl]-piperidin-4-yl}-acetamide] | 3660 | 15.3 |
| CCOc1cc(Cl)c(S(C)(=O)=O)cc1C1=N[C@@](C)(c2ccc(Cl)cc2)[C@@](C)(c2ccc(Cl)cc2)N1C(=O)N1CCNC(=O)C1 [Example 2, 4-[(4S,5R)-2-(4-Chloro-2-ethoxy-5-methanesulfonyl-phenyl)-4,5-bis-(4-chloro-phenyl)-4,5-dimethyl-4,5-dihydro-imidazole-1-carbonyl]-piperazin-2-one] | 1080 | 5.7 |
| CCOc1cc(Cl)c(S(C)(=O)=O)cc1C1=N[C@@](C)(c2ccc(Cl)cc2)[C@@](C)(c2ccc(Cl)cc2)N1C(=O)N1CCN(C[C@H](O)CO)CC1 [Example 3, [(4S,5R)-2-(4-Chloro-2-ethoxy-5-methanesulfonyl-phenyl)-4,5-bis-(4-chloro-phenyl)-4,5-dimethyl-4,5-dihydro-imidazol-1-yl]-[4-((S)-2,3-dihydroxy-propyl)-piperazin-1-yl]-methanone] | 1140 | 5.4 |
| CCOc1cc(Cl)c(S(C)(=O)=O)cc1C1=N[C@@](C)(c2ccc(Cl)cc2)[C@@](C)(c2ccc(Cl)cc2)N1C(=O)N1CCN(CC[C@H](O)CO)C(=O)C1 [Example 4, 4-[(4S,5R)-2-(4-Chloro-2-ethoxy-5-methanesulfonyl-phenyl)-4,5-bis-(4-chloro-phenyl)-4,5-dimethyl-4,5-dihydro-imidazole-1-carbonyl]-1-((S)-3,4-dihydroxy-butyl)-piperazin-2-one] | 1730 | 5.4 |
| CCOc1cc(Cl)c(S(C)(=O)=O)cc1C1=N[C@@](C)(c2ccc(Cl)cc2)[C@@](C)(c2ccc(Cl)cc2)N1C(=O)N1CCN(CC(N)=O)CC1 [Example 6, 2-{4-[(4S,5R)-2-(4-Chloro-2-ethoxy-5-methanesulfonyl-phenyl)-4,5-bis-(4-chloro-phenyl)-4,5-dimethyl-4,5-dihydro-imidazole-1-carbonyl]-piperazin-1-yl}-acetamide] | 1210 | 6.6 |
| CCOc1cc(Cl)c(S(C)(=O)=O)cc1C1=N[C@@](C)(c2ccc(Cl)cc2)[C@@](C)(c2ccc(Cl)cc2)N1C(=O)N1CCN(S(C)(=O)=O)CC1 [Example 7, [(4S,5R)-2-(4-Chloro-2-ethoxy-5-methanesulfonyl-phenyl)-4,5-bis-(4-chloro-phenyl)-4,5-dimethyl-4,5-dihydro-imidazol-1-yl]-(4-methanesulfonyl-piperazin-1-yl)-methanone] | 2490 | 6.3 |
| CCOc1cc(Cl)c(S(C)(=O)=O)cc1C1=N[C@@](C)(c2ccc(Cl)cc2)[C@@](C)(c2ccc(Cl)cc2)N1C(=O)N1CCC(N)CC1 [Example 8, (4-Amino-piperidin-1-yl)-[(4S,5R)-2-(4-chloro-2-ethoxy-5-methanesulfonyl-phenyl)-4,5-bis-(4-chloro-phenyl)-4,5-dimethyl-4,5-dihydro-imidazol-1-yl]-methanone] | 1070 | 4.4 |
| CCOc1cc(Cl)c(S(C)(=O)=O)cc1C1=N[C@@](C)(c2ccc(Cl)cc2)[C@@](C)(c2ccc(Cl)cc2)N1C(=O)N1CCC(CS(C)(=O)=O)CC1 [Example 9, [(4S,5R)-2-(4-Chloro-2-ethoxy-5-methanesulfonyl-phenyl)-4,5-bis-(4-chloro-phenyl)-4,5-dimethyl-4,5-dihydro-imidazol-1-yl]-(4-methanesulfonylmethyl-piperidin-1-yl)-methanone] | 1700 | 5.8 |
| CCNC(=O)NC1CCN(C(=O)N2C(c3cc(S(C)(=O)=O)c(Cl)cc3OCC)=N[C@@](C)(c3ccc(Cl)cc3)[C@@]2(C)c2ccc(Cl)cc2)CC1 [Example 10, 1-{1-[(4S,5R)-2-(4-Chloro-2-ethoxy-5-methanesulfonyl-phenyl)-4,5-bis-(4-chloro-phenyl)-4,5-dimethyl-4,5-dihydro-imidazole-1-carbonyl]-piperidin-4-yl}-3-ethyl-urea] | 974 | 4.2 |
| CCOc1cc(Cl)c(S(C)(=O)=O)cc1C1=N[C@@](C)(c2ccc(Cl)cc2)[C@@](C)(c2ccc(Cl)cc2)N1C(=O)N1CCC(NC(=O)NC(C)C)CC1 [Example 11, 1-{1-[(4S,5R)-2-(4-Chloro-2-ethoxy-5-methanesulfonyl-phenyl)-4,5-bis-(4-chloro-phenyl)-4,5-dimethyl-4,5-dihydro-imidazole-1-carbonyl]-piperidin-4-yl}-3-isopropyl-urea] | 1270 | 4.5 |
| CCOc1cc(Cl)c(S(=O)(=O)CC)cc1C1=N[C@@](C)(c2ccc(Cl)cc2)[C@@](C)(c2ccc(Cl)cc2)N1C(=O)N1CCN(CCCS(C)(=O)=O)CC1 [Example 12, [(4S,5R)-2-(4-Chloro-5-ethanesulfonyl-2-ethoxy-phenyl)-4,5-bis-(4-chloro-phenyl)-4,5-dimethyl-4,5-dihydro-imidazol-1-yl]-[4-(3-methanesulfonyl-propyl)-piperazin-1-yl]-methanone] | 989 | 5.5 |
| CCOc1cc(Cl)c(S(C)(=O)=O)cc1C1=N[C@@](C)(c2ccc(Cl)cc2)[C@@](C)(c2ccc(Cl)cc2)N1C(=O)N1CCC(CCS(C)(=O)=O)CC1 [Example 13, [(4S,5R)-2-(4-Chloro-2-ethoxy-5-methanesulfonyl-phenyl)-4,5-bis-(4-chloro-phenyl)-4,5-dimethyl-4,5-dihydro-imidazol-1-yl]-[4-(2-methanesulfonyl-ethyl)-piperidin-1-yl]-methanone] | 1370 | 6.1 |
| CCOc1cc(Cl)c(S(C)(=O)=O)cc1C1=N[C@@](C)(c2ccc(Cl)cc2)[C@@](C)(c2ccc(Cl)cc2)N1C(=O)N1CCN(CCCS(=O)(=O)CC)CC1 [Example 14, [(4S,5R)-2-(4-Chloro-2-ethoxy-5-methanesulfonyl-phenyl)-4,5-bis-(4-chloro-phenyl)-4,5-dimethyl-4,5-dihydro-imidazol-1-yl]-[4-(3-ethanesulfonyl-propyl)-piperazin-1-yl]-methanone] | 1460 | 4.7 |
| CCOc1cc(Cl)c(S(C)(=O)=O)cc1C1=N[C@@](C)(c2ccc(Cl)cc2)[C@@](C)(c2ccc(Cl)cc2)N1C(=O)N1CCN(CC(=O)N(CCOC)CCOC)CC1 [Example 15, 2-{4-[(4S,5R)-2-(4-Chloro-2-ethoxy-5-methanesulfonyl-phenyl)-4,5-bis-(4-chloro-phenyl)-4,5-dimethyl-4,5-dihydro-imidazole-1-carbonyl]-piperazin-1-yl}-N,N-bis-(2-methoxy-ethyl)-acetamide] | 1140 | 5.5 |
| CCOCCN(CCOCC)C(=O)CN1CCN(C(=O)N2C(c3cc(S(C)(=O)=O)c(Cl)cc3OCC)=N[C@@](C)(c3ccc(Cl)cc3)[C@@]2(C)c2ccc(Cl)cc2)CC1 [Example 16, 2-{4-[(4S,5R)-2-(4-Chloro-2-ethoxy-5-methanesulfonyl-phenyl)-4,5-bis-(4-chloro-phenyl)-4,5-dimethyl-4,5-dihydro-imidazole-1-carbonyl]-piperazin-1-yl}-N,N-bis-(2-ethoxy-ethyl)-acetamide] | 849 | 5 |
